Read-outs that look alike come from different tables or passages of the source.
Columns and labels:
[1] = Storage Stability Test-2 (sealed brown glass bottle, 40° C., purity by HPLC); assay type: physicochemical; details: HPLC peak area ratio
Method: (§1) The crystalline form of the present invention obtained according to Example 2 and Crystalline form 1 were sealed in a brown glass bottle at a constant temperature of 40° C. followed by measurement of purity at the start of the test and one month later using high performance liquid chromatography (column: Develosil RPAQUEOUS 4.6×150 mm, column temperature: 60° C., developer flow rate: 1.0 ml/min, developer: 0.02 M aqueous potassium dihydrogen phosphate solution/acetonitrile=95/5 to 50/50). The resulting purities were represented as the ratios of the areas of the chromatographic peaks.

[2] = Storage Stability Test-1 (sealed brown glass bottle, 25° C., purity by HPLC); assay type: physicochemical; details: HPLC peak area ratio
Method: as §1, with “and a crystalline form described in Japanese Patent Application Publication (Kokai) No. 2001-72681 ((1R,5S,6S)-6-[(1R)-1-hydroxyethyl]-1-methyl-2-[(2S,4S)-2-[(3S)-3-(2-guanidinoacetylamino)pyrrolidin-1-ylcarbonyl]-1-methylpyrrolidin-4-ylthio]-1-carbepen-2-em-3-carboxylic acid·monoethanolate·trihydrate, referred to as” for “and”, “form 1)” for “form 1”, “of 25°” for “of 40°”, “the test,” for “the test and”, “month later and two months” for “month”

[3] = Water Solubility Test (time to completely dissolve); assay type: physicochemical; details: for Dissolving time: 300 mg of crystals sized through 150 μm mesh, 10 ml of water, 25° C., complete dissolution
Text: The crystalline form of the present invention obtained according to Example 2 and a crystalline form described in Japanese Patent Application Publication (Kokai) No. 2001-72681 ((1R,5S,6S)-6-[(1R)-1-hydroxyethyl]-1-methyl-2-[(2S,4S)-2-[(3S)-3-(2-guanidinoacetylamino)pyrrolidin-1-ylcarbonyl]-1-methylpyrrolidin-4-ylthio]-1-carbepen-2-em-3-carboxylic acid, referred to as Crystalline form 2) were sized by passing through a 150 μm mesh filter followed by measurement of the amount of time required for 300 mg of the crystals to completely dissolve in 10 ml of water at 25° C.

[4] = test system: Gram-negative bacteria and Gram-positive bacteria; details: cited from earlier work

C[C@@H](O)[C@H]1C(=O)N2C(C(=O)O)=C(S[C@H]3C[C@@H](C(=O)N4CC[C@H](NC(=O)CNC(=N)N)C4)N(C)C3)[C@H](C)[C@H]12 (stereo in doubt) [Crystalline form of present invention, (1R,5S,6S)-6-[(1R)-1-Hydroxyethyl]-1-methyl-2-[(2S,4S)-2-[(3S)-3-(2-guanidinoacetylamino)pyrrolidin-1-ylcarbonyl]-1-methylpyrrolidin-4-ylthio]-1-carbapen-2-em-3-carboxylic acid acetonate]
Purity 1 month later (%) [1]: 98.35% | Purity at start of test (%) [1]: 98.35% | Purity (%) 1 month later [2]: 98.43% | Purity (%) 2 months later [2]: 98.40% | Purity (%) Start of test [2]: 98.35% | Dissolving time [3]: 2.5 min | solubility in water (in words) ([3]; compared with the known crystalline form): superior to that of the known crystalline form

CCO.C[C@@H](O)[C@H]1C(=O)N2C(C(=O)O)=C(S[C@H]3C[C@@H](C(=O)N4CC[C@H](NC(=O)CNC(=N)N)C4)N(C)C3)[C@H](C)[C@H]12.O.O.O [Crystalline form 1, (1R,5S,6S)-6-[(1R)-1-hydroxyethyl]-1-methyl-2-[(2S,4S)-2-[(3S)-3-(2-guanidinoacetylamino)pyrrolidin-1-ylcarbonyl]-1-methylpyrrolidin-4-ylthio]-1-carbepen-2-em-3-carboxylic acid·monoethanolate·trihydrate, reference compound]
Purity 1 month later (%) [1]: 98.26% | Purity at start of test (%) [1]: 98.45% | Purity (%) 1 month later [2]: 98.35% | Purity (%) 2 months later [2]: 98.06% | Purity (%) Start of test [2]: 98.45%

C[C@@H](O)[C@H]1C(=O)N2C(C(=O)O)=C(S[C@H]3C[C@@H](C(=O)N4CC[C@H](NC(=O)CNC(=N)N)C4)N(C)C3)[C@H](C)[C@H]12 [Crystalline form 2, (1R,5S,6S)-6-[(1R)-1-hydroxyethyl]-1-methyl-2-[(2S,4S)-2-[(3S)-3-(2-guanidinoacetylamino)pyrrolidin-1-ylcarbonyl]-1-methylpyrrolidin-4-ylthio]-1-carbepen-2-em-3-carboxylic acid, reference compound]
Dissolving time [3]: 8.0 min

C[C@@H](O)[C@H]1C(=O)N2C(C(=O)O)=C(S[C@H]3C[C@@H](C(=O)N4CC[C@H](NC(=O)CNC(=N)N)C4)N(C)C3)[C@H](C)[C@H]12 [compound (I), (1R,5S,6S)-6-[(1R)-1-hydroxyethyl]-1-methyl-2-[(2S,4S)-2-[(3S)-3-(2-guanidinoacetylamino)pyrrolidin-1-ylcarbonyl]-1-methylpyrrolidin-4-ylthio]-1-carbapen-2-em-3-carboxylic acid]
antibacterial activity ([4]; from Patent Documents 1 and 2, listed as formula (I)): potent antibacterial activity | antibacterial activity ([4]; from Patent Documents 1 and 2): excellent antibacterial activity
